Where two headings read alike, the source gives them in different places.
Key:
TSU cells = assay: Induction of apoptosis, TSU; format: cell-based, human
Procedure: (§1) The ability of DJ 1-31, DJ 1-29, S-NTBA and Compound V to induce apoptosis in different prostate cancer cell lines (DU 145, PC-3, TSU, PPC-1 and LNCaP), in other cancer cell lines (TCCSUP, HT-29 and MCF-7) and in a control cell line (CV-1) was determined and the results are shown in Table 6.

[1] = system: AR-expressing LNCaP prostate cancer cell line; assay: Cytotoxicity, SRB assay, LNCaP; format: cell-based, human; details: Homo sapiens, LNCaP, read-out: IC50 LNCaP
Procedure: (§2) The SRB Assay was used to determine cell number during cytotoxocity experiments. The following protocol was used: • 1. […] Experimental cultures were cultured in 96-well microtiter plates (200 uL growth medium per well; 1,000-200,000 cells per well). • 3. Cultures were fixed with 50 uL 50% TCA (4° C.). (see cell fixation protocol for details). • 4. Fixed cells were stained with 50 uL 0.4% (wt/vol) SRB in 1% acetic acid for 10 minutes. • 5. SRB was removed and the cultures were quickly* rinsed 5 times with 1% acetic acid to remove unbound dye.** • 6. Cultures were air-dried overnight until there is no visible moisture. • 7. […] Absorbance was read at 540 nm. • * quickly performing rinsing process is to prevent desorption of protein-bound SRB • ** completely remove residual wash solution by sharply flicking plates over sink. Fixation of Cells Attached to the Plastic Substratum
(§3) The following protocol was used for fixing cells: • a. 50 uL of 50% TCA (4° C.) were gently layered on the top of growth medium in each well to make a final TCA concentration of 10%. • b. Cultures were incubated at 4° C. for 1 hour. • c. Cultures were washed 5 times with tap water to remove TCA, growth medium, low-molecular-weight metabolites, and serum protein. • d. Plates were air-dried until there was no visible moisture.

[2] = system: HT-29 colorectal adenocarcinoma cell line; assay: Cytotoxicity, SRB assay, HT-29; format: cell-based, human; details: Homo sapiens, read-out: IC50 HT-29
Procedure: as §2, §3

[3] = system: MCF-7 breast adenocarcinoma cell line; assay: Cytotoxicity, SRB assay, MCF-7; format: cell-based; details: Homo sapiens, Example 4
Procedure: (§4) The SRB Assay was used to determine cell number during cytotoxocity experiments. The following protocol was used: • 1. Cells were detached with 0.25% trypsin. • 2. Experimental cultures were cultured in 96-well microtiter plates (200 uL growth medium per well; 1,000-200,000 cells per well). • 3. Cultures were fixed with 50 uL 50% TCA (4° C.). (see cell fixation protocol for details). • 4. Fixed cells were stained with 50 uL 0.4% (wt/vol) SRB in 1% acetic acid for 10 minutes. • 5. SRB was removed and the cultures were quickly* rinsed 5 times with 1% acetic acid to remove unbound dye.** • 6. Cultures were air-dried overnight until there is no visible moisture. • 7. The cellular protein-bound SRB was dissolved with 200 uL unbuffered Tris base (10 mM, pH 10.5) for 30 minutes on a rocking platform shaker. • 8. Absorbance was read at 540 nm. • * quickly performing rinsing process is to prevent desorption of protein-bound SRB • ** completely remove residual wash solution by sharply flicking plates over sink. Fixation of Cells Attached to the Plastic Substratum
as §3

[4] = system: TSU prostate cancer cell line; assay: Cytotoxicity, SRB assay, TSU; format: cell-based, human; details: Homo sapiens, read-out: IC50 TSU
Procedure: as §2, §3

PPC-1 cells = assay: Induction of apoptosis, PPC-1; format: cell-based, human
Procedure: as §1

PC-3 cells = assay: Induction of apoptosis, PC-3; format: cell-based, human
Procedure: as §1

CV-1 cells = assay: Induction of apoptosis, CV-1; format: cell-based, African green monkey
Procedure: as §1

HT-29 cells = assay: Induction of apoptosis, HT-29; format: cell-based, human
Procedure: as §1

LNCaP cells = assay: Induction of apoptosis, LNCaP; format: cell-based, human
Procedure: as §1

TCCSUP cells = assay: Induction of apoptosis, TCCSUP; format: cell-based, human
Procedure: as §1

[5] = system: PPC-1 prostate cancer cell line; assay: Cytotoxicity, SRB assay, PPC-1; format: cell-based, human; details: Homo sapiens, read-out: IC50 PPC-1
Procedure: as §2, §3

DU 145 cells = assay: Induction of apoptosis, DU 145; format: cell-based, human
Procedure: as §1

[6] = system: PC-3 bone metastatic prostate cancer cell line; assay: Cytotoxicity, SRB assay, PC-3; format: cell-based, human; details: Homo sapiens, read-out: IC50 PC-3
Procedure: PPC-1, LNCaP, TSU, PC-3, and DU145 were grown in PRMI-1640 medium containing 2 mM L-glutamine supplemented with 10% fetal bovine serum (FBS). Cells were maintained in a 5% CO2/95% air humidified atomosphere at 37° C.
as §4, §3

CV-1 control cell line = assay: Cytotoxicity, SRB assay, CV-1 control; format: cell-based, African green monkey; details: Chlorocebus sabaeus, read-out: IC50 CV-1
Procedure: as §4, §3

[7] = system: TCCSUP bladder cancer cell line; assay: Cytotoxicity, SRB assay, TCCSUP; format: cell-based, human; details: Homo sapiens, TCC-SUP, read-out: IC50 TCCSUP
Procedure: as §2, §3

MCF-7 cells = assay: Induction of apoptosis, MCF-7; format: cell-based
Procedure: as §1

[8] = system: DU 145 prostate cancer cell line; assay: Cytotoxicity, SRB assay, DU 145; format: cell-based, human; details: Homo sapiens, read-out: IC50 DU 145
Procedure: as §2, §3

[9] = MCF7, 24 h, drug incubation time 1 day
[10] = MCF7, 96 h, drug incubation time 4 day

Structure (SMILES) | Enrichment factor TSU (TSU cells) | IC50 ([1]; 24 h) | IC50 ([1]; 96 h) | IC50 ([2]; HT-29, 24 h) | IC50 ([2]; HT-29, 96 h) | IC50 [3, 9] | IC50 [3, 10] | IC50 ([4]; 24 h) | IC50 ([4]; 96 h) | Enrichment factor PPC-1 (PPC-1 cells) | Enrichment factor PC-3 (PC-3 cells) | Enrichment factor CV-1 (CV-1 cells) | Enrichment factor HT-29 (HT-29 cells) | Enrichment factor LNCaP (LNCaP cells) | Enrichment factor TCCSUP (TCCSUP cells) | IC50 ([5]; PPC-1, 24 h) | IC50 ([5]; PPC-1, 96 h) | Enrichment factor DU 145 (DU 145 cells) | IC50 ([6]; 24 h) | IC50 ([6]; 96 h) | further results
C[C@](O)(COc1ccc(NC(=O)CBr)cc1)C(=O)Nc1ccc([N+](=O)[O-])c(C(F)(F)F)c1 [DJ 1-29] | 1.008 | 1100 ± 400 nM | 1800 ± 200 nM | 3600 ± 400 nM | 4400 ± 200 nM | 11900 ± 300 nM | 12900 ± 700 nM | 1300 ± 100 nM | 1000 ± 100 nM | 1.146 | 0.531 | 0.786 | 1.667 | 16.571 | 0.000 | 900 ± 100 nM | 1300 ± 100 nM | 18.643 | 2300 ± 100 nM | 2400 ± 400 nM | IC50 (CV-1 control cell line; 24 h): 6800 ± 500 nM; IC50 (CV-1 control cell line; 96 h): 7300 ± 200 nM; IC50 ([7]; 24 h): 2600 ± 400 nM; IC50 ([7]; 96 h): 2500 ± 400 nM; Enrichment factor MCF-7 (MCF-7 cells): 1.617; IC50 ([8]; DU-145, 24 h): 400 ± 100 nM; IC50 ([8]; DU-145, 96 h): 400 ± 100 nM
C[C@](O)(COc1ccc(NC(=O)CCl)cc1)C(=O)Nc1ccc([N+](=O)[O-])c(C(F)(F)F)c1 [DJ 1-31] | 0.848 | 2900 ± 1200 nM | 3300 ± 400 nM | 5400 ± 100 nM | 3700 ± 700 nM | 15800 ± 2700 nM | 14000 ± 1100 nM | 1300 ± 100 nM | 1100 ± 100 nM | 1.312 | 0.594 | 0.702 | 1.205 | 1.374 | 0.471 | 1900 ± 100 nM | 1900 ± 100 nM | 2.500 | 5400 ± 800 nM | 5300 ± 800 nM | IC50 (CV-1 control cell line; 24 h): 5800 ± 300 nM; IC50 (CV-1 control cell line; 96 h): 5300 ± 200 nM; IC50 ([7]; 24 h): 2100 ± 300 nM; IC50 ([7]; 96 h): 2100 ± 300 nM; Enrichment factor MCF-7 (MCF-7 cells): 0.938; IC50 ([8]; DU-145, 24 h): 1000 ± 200 nM; IC50 ([8]; DU-145, 96 h): 700 ± 100 nM
